From US10508113B2, “Inhibitors of tyrosine kinase 2 mediated signaling” (AbbVie Inc., priority 2018, dated 2019)

Experiments:
Jak1 = target: T1, Jak1 (Homo sapiens, UniProt P23458); assay: Jak1 (PSTAT3 TF1) alpha screen assay: inhibition of IL-6 induced phosphorylation of STAT3 in TF1 cells; type: cell-based; conditions: calculated from tabulated EC50 data (Jak1 / Tyk2)
T1 construct: endogenous in cells; host or cells: TF1 cells
Method in brief: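 IL-6-starved TF1 cells were preincubated 30 min at 37 °C with compound (top final 25 μM, 8-point 1:5 series), then stimulated with IL-6 (100 ng/mL final) for 30 min at 37 °C. Lysates were read for pSTAT3 (Tyr705) by AlphaScreen SureFire. EC50 from percent-activity dose-response curves.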

Jak2 = target: T2, Jak2 (Homo sapiens, UniProt O60674); assay: Jak2 (PSTATS UT7) alpha screen assay: inhibition of EPO induced phosphorylation of STAT5 in UT7 cells; type: cell-based; conditions: calculated from tabulated EC50 data (Jak2 / Tyk2)
T2 construct: Cell Type: UT7 cells engineered to express the erythropoietin (EPO) receptor; endogenous in cells; host or cells: UT7 cells engineered to express the EPO receptor
T2 sequence (O60674 whole entry): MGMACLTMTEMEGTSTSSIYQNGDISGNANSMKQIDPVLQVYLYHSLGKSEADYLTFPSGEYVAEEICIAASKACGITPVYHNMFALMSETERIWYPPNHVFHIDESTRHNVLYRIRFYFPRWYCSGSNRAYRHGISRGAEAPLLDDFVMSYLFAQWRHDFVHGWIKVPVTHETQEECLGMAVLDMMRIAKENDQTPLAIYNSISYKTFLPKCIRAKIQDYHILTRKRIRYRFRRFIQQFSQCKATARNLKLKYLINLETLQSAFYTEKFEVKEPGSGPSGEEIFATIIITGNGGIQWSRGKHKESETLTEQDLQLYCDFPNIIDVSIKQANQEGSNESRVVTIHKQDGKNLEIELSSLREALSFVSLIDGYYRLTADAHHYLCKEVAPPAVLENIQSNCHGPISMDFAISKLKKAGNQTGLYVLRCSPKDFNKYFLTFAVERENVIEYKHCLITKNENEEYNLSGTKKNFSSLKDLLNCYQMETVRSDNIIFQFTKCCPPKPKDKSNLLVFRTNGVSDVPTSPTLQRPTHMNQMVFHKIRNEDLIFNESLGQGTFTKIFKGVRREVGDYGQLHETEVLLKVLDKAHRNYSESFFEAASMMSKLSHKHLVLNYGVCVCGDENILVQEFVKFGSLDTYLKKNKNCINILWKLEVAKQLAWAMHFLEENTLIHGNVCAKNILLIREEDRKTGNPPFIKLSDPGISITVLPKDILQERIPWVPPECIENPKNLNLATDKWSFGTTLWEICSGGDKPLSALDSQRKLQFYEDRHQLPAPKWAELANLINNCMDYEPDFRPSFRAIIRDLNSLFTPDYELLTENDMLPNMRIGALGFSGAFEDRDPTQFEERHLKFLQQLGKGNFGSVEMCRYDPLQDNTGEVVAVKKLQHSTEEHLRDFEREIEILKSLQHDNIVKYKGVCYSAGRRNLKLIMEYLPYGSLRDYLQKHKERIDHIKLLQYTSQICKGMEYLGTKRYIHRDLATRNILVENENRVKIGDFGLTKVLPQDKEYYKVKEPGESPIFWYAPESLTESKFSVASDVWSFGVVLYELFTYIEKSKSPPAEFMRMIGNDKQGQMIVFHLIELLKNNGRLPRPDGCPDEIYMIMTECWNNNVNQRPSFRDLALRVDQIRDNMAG
Experimental: 3. JAK2 (PSTATS UT7) ALPHA SCREEN ASSAY
Erythropoietin (EPO) is known to transduce its signal through EPO receptor via Jak2. Activity against Jak2 was therefore measured by determining inhibition of EPO induced phosphorylation of STATS in UT7 cells. […] Materials
Cell Type: UT7 cells engineered to express the erythropoietin (EPO) receptor; Culture Medium: Dulbecco's Modified Eagle Medium (DMEM) with 2 mM L-glutamine, 10 mM hydroxyethyl piperazineethanesulfonic acid (HEPES), 10% heat-inactivated fetal bovine serum (FBS) and Stock EPO (5000U in 250 uL, need 5U/mL, so add 250 μL to 1L of media); Assay Medium: 5% FBS ultra-low IgG and 1% Pen/Strep. Compounds were made-up in 100% dimethyl sulfoxide (DMSO).
Day One - Starve Cells: 4 Flasks for one 384 plate (spin down @1000 rpm for 10 minutes and add DMEM with no EPO).
Day Two—Compound Dilutions:
i. Manual 8-point 1:3 dilution curve: 5 mM top concentration dispensed in row A of a
Corning 96-well polypropylene plate, columns 2-12. DMSO dispensed in position A01 for low and high controls. Compounds were serially diluted 1:3 by adding 10 μL stock to 20 μL DMSO down the plate.
ii. Media dilution of compounds: Serially diluted compounds were diluted 1:50 in assay medium by adding 4 μL compound to 196 μL assay medium in a Corning 96-well polypropylene plate.
384 Alpha Screen Plate Set up: Transferred 2.5 μL/well of compound solution from last dilution plate. Replicates were vertical, so that one column of the 96-well dilution plate goes into one column on the 384-well plate twice. Plated 1×10^5 starved cells/well in 5μL. Washed cells in 10 mL Hank's balanced salt solution (HBSS) after spinning down. Counted live cells. Multiplied by dilution factor and 10,000 (constant) to get the concentration of viable cells. Multiplied by volume of cells to get the total number of live cells. Divided by 20,000,000 cells/mL to get the volume needed. Subtracted the original volume to get the volume to be added to get the final concentration of cells. Mixed in reservoir if needed, ensuring that all cell clumps are broken up (if not broken up, they were removed from the suspension). Cells were plated at 5 μL/well in gray Alpha Screen 384-well plate. Spinned the plate to bring the contents to the bottom of the wells at 400 rpm for 2 minutes. Top final compound concentration: 25 μM. Sealed with adhesive and tapped gently. Incubated cells at 37° C. for 30 minutes.
c. EPO Stimulation (p STATS)
Once cells were in incubator, immediately prepared working stock of EPO (1 nM final assay concentration). EPO stock=2860 nM of sterile filtered liquid in sodium citrate buffer (1 liter of ddH2O containing 5.9 g of sodium citrate, 5.8 g of sodium chloride and 0.06 g of citric acid). Diluted 1:22.72 by adding 4.44 stock EPO to 95.6 pi assay media, then dilute again […] depending on how much volume is needed for the assay plates. Used assay medium to bring to volume. Added 2.5 μL EPO to each well. Spinned plate at 400 rpm briefly; tap the plate gently before covering with an adhesive seal. Cells were incubated at 37° C. for 20 minutes.
Added 2.5 μL of 5X Lysis buffer to each well. Spinned plate at 400 rpm briefly. Incubated at room temperature (on orbital shaker) for 10 minutes.
e. Protein (A) Acceptor Beads Preparation: (Light sensitive)
Phosphorylated Signal Transducer and Activator of Transcription 5 (pSTAT5) was quantified using the PerkinElmer SureFire pSTATS (Tyrosine 694/699) Assay. Calculated total volume needed (wells×15 μL×30%). Divided total volume by 5 to get volume of activation buffer. Subtracted volume of activation buffer from total volume and divide by 40 to get volume of acceptor beads (add last). Total volume - acceptor bead volume - activation buffer to get volume of reaction buffer. Added 15 μL to each well and covered with foil. Shaked on orbital shaker for 2 hours at 500 rpm.
f. Streptavidin Donor Beads Preparation:
Calculated total volume needed (wells×6μL×30%). […]

T1 sequence (P23458 whole entry): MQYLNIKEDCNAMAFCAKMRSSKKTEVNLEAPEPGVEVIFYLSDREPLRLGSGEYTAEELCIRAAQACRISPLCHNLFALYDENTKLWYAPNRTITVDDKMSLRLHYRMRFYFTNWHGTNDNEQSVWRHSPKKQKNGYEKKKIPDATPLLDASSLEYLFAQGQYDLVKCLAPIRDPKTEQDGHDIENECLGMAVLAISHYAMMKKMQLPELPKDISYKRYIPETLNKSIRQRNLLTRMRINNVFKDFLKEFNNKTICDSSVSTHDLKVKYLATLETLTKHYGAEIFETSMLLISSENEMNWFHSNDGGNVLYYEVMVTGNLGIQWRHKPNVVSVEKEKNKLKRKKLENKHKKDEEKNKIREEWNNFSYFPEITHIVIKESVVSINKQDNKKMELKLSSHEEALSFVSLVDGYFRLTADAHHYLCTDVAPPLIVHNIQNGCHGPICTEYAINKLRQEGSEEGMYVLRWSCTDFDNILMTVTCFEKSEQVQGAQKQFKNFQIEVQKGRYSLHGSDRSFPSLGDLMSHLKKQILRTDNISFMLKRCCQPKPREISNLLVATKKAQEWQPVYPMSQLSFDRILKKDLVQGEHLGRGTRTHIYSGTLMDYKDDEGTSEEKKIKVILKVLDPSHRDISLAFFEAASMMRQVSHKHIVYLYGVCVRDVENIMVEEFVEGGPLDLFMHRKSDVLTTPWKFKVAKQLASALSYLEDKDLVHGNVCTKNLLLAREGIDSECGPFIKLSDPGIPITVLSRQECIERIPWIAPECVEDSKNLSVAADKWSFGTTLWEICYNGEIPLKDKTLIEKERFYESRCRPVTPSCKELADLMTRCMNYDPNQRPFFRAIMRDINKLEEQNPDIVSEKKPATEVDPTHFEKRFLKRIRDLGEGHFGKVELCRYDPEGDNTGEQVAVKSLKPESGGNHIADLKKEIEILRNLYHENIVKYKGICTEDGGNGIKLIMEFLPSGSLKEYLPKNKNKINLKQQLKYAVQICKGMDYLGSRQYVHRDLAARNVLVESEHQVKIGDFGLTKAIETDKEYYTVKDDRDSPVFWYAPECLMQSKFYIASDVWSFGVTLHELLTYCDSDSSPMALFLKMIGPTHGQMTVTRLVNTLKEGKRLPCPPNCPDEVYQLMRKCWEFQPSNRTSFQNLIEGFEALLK

SMILES | Tyk2 selectivity over Jak1 (Jak1) | Tyk2 selectivity over Jak2 (Jak2)
COC1(c2cccc(-c3cn(C)c4cnc(NC(N)=O)cc34)n2)COC1 [Example 1b.4, 1-(3-(6-(3-methoxyoxetan-3-yl)pyridin-2-yl)-1-methyl-1H-pyrrolo[2,3-c]pyridin-5-yl)urea] | 54-fold | >176-fold
CO[C@@]1(c2cc(OCC[C@@H](C)O)cc(-c3cn(C)c4cnc(NC(C)=O)cc34)n2)CCOC1 [Example 7] | 39-fold | >28-fold
CO[C@@]1(c2cc(O[C@H]3C[C@H](O)C3)cc(-c3cn(C)c4cnc(NC(C)=O)cc34)n2)CCOC1 [Example 11, N-(3-(4-((trans)-3-Hydroxycyclobutoxy)-6-((R)-3-methoxytetrahydrofuran-3-yl)pyridin-2-yl)-1-methyl-1H-pyrrolo[2,3-c]pyridin-5-yl)acetamide] | 442-fold | >481-fold
COCc1cc(-c2cn(C)c3cnc(NC(C)=O)cc23)nc([C@]2(OC)CCOC2)c1 [Example 2, (R)-N-(3-(4-(Methoxymethyl)-6-(3-methoxytetrahydrofuran-3-yl)pyridin-2-yl)-1-methyl-1H-pyrrolo[2,3-c]pyridin-5-yl)acetamide] | >317-fold | >198-fold
CC[C@]1(c2cc(C#N)cc(-c3cn(C)c4cnc(NC(C)=O)cc34)n2)CCOC1 [Example 2.11, (R)-N-(3-(4-cyano-6-(3-ethyltetrahydrofuran-3-yl)pyridin-2-yl)-1-methyl-1H-pyrrolo[2,3-c]pyridin-5-yl)acetamide] | 72-fold | >240-fold
CO[C@@]1(c2cc(C#N)cc(-c3cn([C@@H]4CC4(F)F)c4cnc(NC(C)=O)cc34)n2)CCOC1 [Example 2a.3, N-(3-(4-cyano-6-((R)-3-methoxytetrahydrofuran-3-yl)pyridin-2-yl)-1-((R)-2,2-difluorocyclopropyl)-1H-pyrrolo[2,3-c]pyridin-5-yl)acetamide] | 440-fold | >197-fold
COCc1cc(-c2cn(C3COC3)c3cnc(NC(C)=O)cc23)nc([C@]2(OC)CCOC2)c1 [Example 4, (R)-N-(3-(4-(methoxymethyl)-6-(3-methoxytetrahydrofuran-3-yl)pyridin-2-yl)-1-(oxetan-3-yl)-1H-pyrrolo[2,3-c]pyridin-5-yl)acetamide] | >730-fold | >182-fold
CO[C@@]1(c2cccc(-c3cn(C)c4cnc(NC(N)=O)cc34)n2)CCOC1 [Example 1, (R)-1-(3-(6-(3-Methoxytetrahydrofuran-3-yl)pyridin-2-yl)-1-methyl-1H-pyrrolo[2,3-c]pyridin-5-yl)urea] | 92-fold | >424-fold

Other lines, results leading:

Tyk2 selectivity over Jak1 (Jak1) | Tyk2 selectivity over Jak2 (Jak2) | SMILES
>1087-fold | >272-fold | COCc1cc(-c2cn(C)c3cnc(NC(=O)CO)cc23)nc([C@]2(OC)CCOC2)c1 [Example 24, (R)-2-hydroxy-N-(3-(4-(methoxymethyl)-6-(3-methoxytetrahydrofuran-3-yl)pyridin-2-yl)-1-methyl-1H-pyrrolo[2,3-c]pyridin-5-yl)acetamide]
72-fold | >171-fold | COCc1cc(-c2cn(C)c3cnc(NC(C)=O)cc23)nc([C@]2(CO)CCOC2)c1 [Example 22, (S)-N-(3-(6-(3-(Hydroxymethyl)tetrahydrofuran-3-yl)-4-(methoxymethyl)pyridin-2-yl)-1-methyl-1H-pyrrolo[2,3-c]pyridin-5-yl)acetamide]
>500-fold | >500-fold | CO[C@@]1(c2cc(C(F)F)cc(-c3cn(C)c4cnc(NC(=O)CO)cc34)n2)CCOC1 [Example 26, (R)-N-(3-(4-(difluoromethyl)-6-(3-methoxytetrahydrofuran-3-yl)pyridin-2-yl)-1-methyl-1H-pyrrolo[2,3-c]pyridin-5-yl)-2-hydroxyacetamide]
243-fold | >174-fold | CO[C@@]1(c2cc(C(F)F)cc(-c3cn([C@H]4C[C@H](C#N)C4)c4cnc(NC(C)=O)cc34)n2)CCOC1 [Example 17.2, N-(1-((trans)-3-cyanocyclobutyl)-3-(4-(difluoromethyl)-6-((R)-3-methoxytetrahydrofuran-3-yl)pyridin-2-yl)-1H-pyrrolo[2,3-c]pyridin-5-yl)acetamide]
1960-fold | >1000-fold | COCCOc1cc(-c2cn(C)c3cnc(NC(C)=O)cc23)nc([C@]2(OC)CCOC2)c1 [Example 25, (R)-N-(3-(4-(2-methoxyethoxy)-6-(3-methoxytetrahydrofuran-3-yl)pyridin-2-yl)-1-methyl-1H-pyrrolo[2,3-c]pyridin-5-yl)acetamide]
>272-fold | >272-fold | CO[C@H](C)COc1cc(-c2cn(C)c3cnc(NC(C)=O)cc23)nc([C@]2(OC)CCOC2)c1 [Example 22.10, N-(3-(4-((R)-2-methoxypropoxy)-6-((R)-3-methoxytetrahydrofuran-3-yl)pyridin-2-yl)-1-methyl-1H-pyrrolo[2,3-c]pyridin-5-yl)acetamide]
66-fold | >102-fold | CO[C@@]1(c2cncc(-c3cn(C)c4cnc(NC(N)=O)cc34)n2)CCOC1 [Example 12, (R)-1-(3-(6-(3-Methoxytetrahydrofuran-3-yl)pyrazin-2-yl)-1-methyl-1H-pyrrolo[2,3-c]pyridin-5-yl)urea]
